Test results from patent US11178869B2, “Microbiocidal quinoline (thio)carboxamide derivatives” (priority 2017, dated 2021).
Like-named read-outs stand apart in the source and are kept apart here.

Key:
[1] = tested on: Botryotinia fuckeliana (Botrytis cinerea); assay: Botryotinia fuckeliana (Botrytis cinerea) / liquid culture (gray mould); assay type: cell-based; details: 72 h, 200 ppm, compared to untreated control, growth inhibition photometrically 3-4 days after application, read-out: disease control
[2] = tested on: Fusarium culmorum; assay: microbe, parasite or virus in culture; assay type: cell-based; details: read-out: disease control
[3] = tested on: Glomerella lagenarium (Colletotrichum lagenarium); assay: Glomerella lagenarium (Colletotrichum lagenarium) / liquid culture (anthracnose); assay type: cell-based; details: Colletotrichum orbiculare, read-out: disease control
[4] = tested on: Magnaporthe grisea (Pyricularia oryzae); assay: microbe, parasite or virus in culture; assay type: cell-based; details: read-out: control of Magnaporthe grisea
[5] = tested on: Fusarium culmorum; assay: whole plant or invertebrate; assay type: in vivo, Fusarium culmorum on wheat spikelets cv. Monsun; details: in Triticum aestivum, 144 h, read-out: control of Fusarium culmorum
[6] = tested on: Monographella nivalis (Microdochium nivale); assay: Monographella nivalis (Microdochium nivale) / liquid culture (foot rot cereals); assay type: cell-based; details: 200 ppm, compared to untreated control, growth inhibition photometrically 4-5 days after application, read-out: disease control
[7] = 200 ppm, compared to untreated control, growth inhibition photometrically 3-4 days after application

C#CCC(C)(CC(C)C)NC(=O)c1cnc2c(F)cccc2c1 (centres unmarked) [Compound E-2, 8-fluoro-N-(1-isobutyl-1-methyl-but-3-ynyl)quinoline-3-carboxamide]
≥ 80%: inhibition of growth at 200 ppm [1] | inhibition of growth at 200 ppm [2] | inhibition of growth at 200 ppm [3, 7]

CCC(C)(C#Cc1ccccc1C)NC(=O)c1cc2cccc(F)c2nc1C (centres unmarked) [Compound F-14, N-[1-ethyl-1-methyl-3-(o-tolyl)prop-2-ynyl]-8-fluoro-2-methyl-quinoline-3-carboxamide]
≥ 80%: inhibition of growth at 20 ppm [4] | inhibition of growth at 200 ppm [1] | inhibition of growth at 200 ppm [2] | inhibition of growth at 200 ppm [3, 7] | pest or weed control at 200 ppm [5]

CCC(C)(C#Cc1ccccc1)NC(=O)c1cc2cccc(F)c2nc1C (centres unmarked) [Compound F-16, N-(1-ethyl-1-methyl-3-phenyl-prop-2-ynyl)-8-fluoro-2-methyl-quinoline-3-carboxamide]
≥ 80%: inhibition of growth at 20 ppm [4] | inhibition of growth at 200 ppm [1] | inhibition of growth at 200 ppm [2] | inhibition of growth at 200 ppm [3, 7] | pest or weed control at 200 ppm [5] | inhibition of growth at 200 ppm [6]

CC(C)(C#Cc1ccccc1F)NC(=O)c1cnc2c(F)cccc2c1 [Compound F-18, 8-fluoro-N-[3-(2-fluorophenyl)-1,1-dimethyl-prop-2-ynyl]quinoline-3-carboxamide]
≥ 80%: inhibition of growth at 200 ppm [1] | inhibition of growth at 200 ppm [2] | inhibition of growth at 200 ppm [3, 7] | inhibition of growth at 200 ppm [6]

Cc1ccc(C#N)cc1C#CC(C)(C)NC(=O)c1cnc2c(F)cccc2c1 [Compound F-19, N-[3-(5-cyano-2-methyl-phenyl)-1,1-dimethyl-prop-2-ynyl]-8-fluoro-quinoline-3-carboxamide]
≥ 80%: inhibition of growth at 200 ppm [1] | inhibition of growth at 200 ppm [2] | inhibition of growth at 200 ppm [3, 7] | inhibition of growth at 200 ppm [6]

CC(C)(C#Cc1ccc(F)c(F)c1)NC(=O)c1cnc2c(F)cccc2c1 [Compound F-20, N-[3-(3,4-difluorophenyl)-1,1-dimethyl-prop-2-ynyl]-8-fluoro-quinoline-3-carboxamide]
≥ 80%: inhibition of growth at 200 ppm [1] | inhibition of growth at 200 ppm [2] | inhibition of growth at 200 ppm [3, 7] | inhibition of growth at 200 ppm [6]

Cc1ccc(C)c(C#CC(C)(C)NC(=O)c2cnc3c(F)cccc3c2)c1 [Compound F-22, N-[3-(2,5-dimethylphenyl)-1,1-dimethyl-prop-2-ynyl]-8-fluoro-quinoline-3-carboxamide]
≥ 80%: inhibition of growth at 200 ppm [1] | inhibition of growth at 200 ppm [2] | inhibition of growth at 200 ppm [3, 7]

Cc1cccc(C#CC(C)(C)NC(=O)c2cnc3c(F)cccc3c2)c1C [Compound F-26, N-[3-(2,3-dimethylphenyl)-1,1-dimethyl-prop-2-ynyl]-8-fluoro-quinoline-3-carboxamide]
≥ 80%: inhibition of growth at 200 ppm [1] | inhibition of growth at 200 ppm [2] | inhibition of growth at 200 ppm [3, 7] | inhibition of growth at 200 ppm [6]

CC(C)(C#Cc1ccc(F)cc1)NC(=O)c1cnc2c(F)cccc2c1 [Compound F-27, 8-fluoro-N-[3-(4-fluorophenyl)-1,1-dimethyl-prop-2-ynyl]quinoline-3-carboxamide]
≥ 80%: inhibition of growth at 200 ppm [1] | inhibition of growth at 200 ppm [2] | inhibition of growth at 200 ppm [3, 7] | inhibition of growth at 200 ppm [6]

COc1ccc(C#CC(C)(C)NC(=O)c2cnc3c(F)cccc3c2)cc1 [Compound F-28, 8-fluoro-N-[3-(4-methoxyphenyl)-1,1-dimethyl-prop-2-ynyl]quinoline-3-carboxamide]
≥ 80%: inhibition of growth at 200 ppm [1] | inhibition of growth at 200 ppm [2] | inhibition of growth at 200 ppm [3, 7] | pest or weed control at 200 ppm [5] | inhibition of growth at 200 ppm [6]

Cc1cc(C)cc(C#CC(C)(C)NC(=O)c2cnc3c(F)cccc3c2)c1 [Compound F-30, N-[3-(3,5-dimethylphenyl)-1,1-dimethyl-prop-2-ynyl]-8-fluoro-quinoline-3-carboxamide]
≥ 80%: inhibition of growth at 200 ppm [1] | inhibition of growth at 200 ppm [2] | inhibition of growth at 200 ppm [3, 7] | inhibition of growth at 200 ppm [6]

Cc1ccc(C#CC(C)(C)NC(=O)c2cnc3c(F)cccc3c2)cc1C [Compound F-32, N-[3-(3,4-dimethylphenyl)-1,1-dimethyl-prop-2-ynyl]-8-fluoro-quinoline-3-carboxamide]
≥ 80%: inhibition of growth at 200 ppm [1] | inhibition of growth at 200 ppm [2] | inhibition of growth at 200 ppm [3, 7] | inhibition of growth at 200 ppm [6]

Cc1ccc(C#CC(C)(C)NC(=O)c2cnc3c(F)cccc3c2)c(C)c1 [Compound F-33, N-[3-(2,4-dimethylphenyl)-1,1-dimethyl-prop-2-ynyl]-8-fluoro-quinoline-3-carboxamide]
≥ 80%: inhibition of growth at 200 ppm [1] | inhibition of growth at 200 ppm [2] | inhibition of growth at 200 ppm [3, 7] | inhibition of growth at 200 ppm [6]

Cc1cc(C#N)ccc1C#CC(C)(C)NC(=O)c1cnc2c(F)cccc2c1 [Compound F-34, N-[3-(4-cyano-2-methyl-phenyl)-1,1-dimethyl-prop-2-ynyl]-8-fluoro-quinoline-3-carboxamide]
≥ 80%: inhibition of growth at 200 ppm [1] | inhibition of growth at 200 ppm [2] | inhibition of growth at 200 ppm [6]

CC(C)(C#Cc1cccc(C#N)c1)NC(=O)c1cnc2c(F)cccc2c1 [Compound F-36, N-[3-(3-cyanophenyl)-1,1-dimethyl-prop-2-ynyl]-8-fluoro-quinoline-3-carboxamide]
≥ 80%: inhibition of growth at 200 ppm [1] | inhibition of growth at 200 ppm [2] | inhibition of growth at 200 ppm [6]

COc1ccccc1C#CC(C)(C)NC(=O)c1cnc2c(F)cccc2c1 [Compound F-37, 8-fluoro-N-[3-(2-methoxyphenyl)-1,1-dimethyl-prop-2-ynyl]quinoline-3-carboxamide]
≥ 80%: inhibition of growth at 200 ppm [1] | inhibition of growth at 200 ppm [2] | inhibition of growth at 200 ppm [3, 7] | inhibition of growth at 200 ppm [6]

COc1cc(C#CC(C)(C)NC(=O)c2cnc3c(F)cccc3c2)ccc1Cl [Compound F-38, N-[3-(4-chloro-3-methoxy-phenyl)-1,1-dimethyl-prop-2-ynyl]-8-fluoro-quinoline-3-carboxamide]
≥ 80%: inhibition of growth at 200 ppm [1] | inhibition of growth at 200 ppm [2] | inhibition of growth at 200 ppm [3, 7] | inhibition of growth at 200 ppm [6]

Cc1cccc(C#CC(C)(C)NC(=O)c2cnc3c(F)cccc3c2)c1 [Compound F-39, N-[1,1-dimethyl-3-(m-tolyl)prop-2-ynyl]-8-fluoro-quinoline-3-carboxamide]
≥ 80%: inhibition of growth at 200 ppm [1] | inhibition of growth at 200 ppm [2] | inhibition of growth at 200 ppm [3, 7] | pest or weed control at 200 ppm [5] | inhibition of growth at 200 ppm [6]

CC(C)(C#Cc1cc(F)cc(F)c1)NC(=O)c1cnc2c(F)cccc2c1 [Compound F-40, N-[3-(3,5-difluorophenyl)-1,1-dimethyl-prop-2-ynyl]-8-fluoro-quinoline-3-carboxamide]
≥ 80%: inhibition of growth at 200 ppm [1] | inhibition of growth at 200 ppm [2] | inhibition of growth at 200 ppm [3, 7] | pest or weed control at 200 ppm [5] | inhibition of growth at 200 ppm [6]

CC(C)(C#Cc1ccccc1C#N)NC(=O)c1cnc2c(F)cccc2c1 [Compound F-41, N-[3-(2-cyanophenyl)-1,1-dimethyl-prop-2-ynyl]-8-fluoro-quinoline-3-carboxamide]
≥ 80%: inhibition of growth at 200 ppm [1] | inhibition of growth at 200 ppm [2] | inhibition of growth at 200 ppm [3, 7] | inhibition of growth at 200 ppm [6]

CC(C)(C#Cc1ccc(C(F)(F)F)cc1)NC(=O)c1cnc2c(F)cccc2c1 [Compound F-42, N-[1,1-dimethyl-3-[4-(trifluoromethyl)phenyl]prop-2-ynyl]-8-fluoro-quinoline-3-carboxamide]
≥ 80%: inhibition of growth at 200 ppm [1] | inhibition of growth at 200 ppm [2] | inhibition of growth at 200 ppm [3, 7] | inhibition of growth at 200 ppm [6]

COc1ccc(C(F)(F)F)cc1C#CC(C)(C)NC(=O)c1cnc2c(F)cccc2c1 [Compound F-43, 8-fluoro-N-[3-[2-methoxy-5-(trifluoromethyl)phenyl]-1,1-dimethyl-prop-2-ynyl]quinoline-3-carboxamide]
≥ 80%: inhibition of growth at 200 ppm [1] | inhibition of growth at 200 ppm [2] | inhibition of growth at 200 ppm [3, 7]

Cc1ccc(F)c(C#CC(C)(C)NC(=O)c2cnc3c(F)cccc3c2)c1 [Compound F-45, 8-fluoro-N-[3-(2-fluoro-5-methyl-phenyl)-1,1-dimethyl-prop-2-ynyl]quinoline-3-carboxamide]
≥ 80%: inhibition of growth at 200 ppm [1] | inhibition of growth at 200 ppm [2] | inhibition of growth at 200 ppm [3, 7] | pest or weed control at 200 ppm [5] | inhibition of growth at 200 ppm [6]

CC#CC(C)(C)NC(=O)c1cnc2c(F)cccc2c1 [Compound F-53, N-(1,1-dimethylbut-2-ynyl)-8-fluoro-quinoline-3-carboxamide]
≥ 80%: inhibition of growth at 200 ppm [2] | inhibition of growth at 200 ppm [3]

C[C@@](CC#CC1CC1)(CC(F)(F)F)NC(=O)c1cnc2c(F)cccc2c1 [Compound G-1, N-[(1R)-4-cyclopropyl-1-methyl-1-(2,2,2-trifluoroethyl)but-3-ynyl]-8-fluoro-quinoline-3-carboxamide]
≥ 80%: inhibition of growth at 200 ppm [1] | inhibition of growth at 200 ppm [2] | inhibition of growth at 200 ppm [6]

C[C@](CC#CC1CC1)(CC(F)(F)F)NC(=O)c1cnc2c(F)cccc2c1 [Compound G-2, N-[(1S)-4-cyclopropyl-1-methyl-1-(2,2,2-trifluoroethyl)but-3-ynyl]-8-fluoro-quinoline-3-carboxamide]
≥ 80%: inhibition of growth at 200 ppm [1] | inhibition of growth at 200 ppm [2]
